Laboratory results as given in US8952024B2, “Herbicidal pyrimidone derivatives” (E I du Pont de Nemours and Company, priority 2009, dated 2015).

What was measured:
Assay type in all cases: in vivo
wild oat (Avena fatua) = experiment: Test B pre-/postemergence plant response
Source text: (§1) Seeds of plant species selected from blackgrass (Alopecurus myosuroides), downy bromegrass (Bromus tectorum), green foxtail (Setaria viridis), Italian ryegrass (Lolium multiflorum), wheat (Triticum aestivum), wild oat (Avena fatua), deadnettle (henbit deadnettle, Lamium amplexicaule), galium (catchweed bedstraw, Galium aparine), bermudagrass (Cynodon dactylon), Surinam grass (Brachiaria decumbens), cocklebur (Xanthium strumarium), corn (Zea mays), large crabgrass (Digitaria sanguinalis), woolly cupgrass (Eriochloa villosa), giant foxtail (Setaria faberii), goosegrass (Eleusine indica), johnsongrass (Sorghum halepense), kochia (Kochia scoparia), lambsquarters (Chenopodium album), morningglory (Ipomoea coccinea), nightshade (eastern black nightshade, Solanum ptycanthum), yellow nutsedge (Cyperus esculentus), pigweed (Amaranthus retroflexus), ragweed (common ragweed, Ambrosia elatior), Russian thistle (Salsola kali), soybean (Glycine max), sunflower (common oilseed sunflower, Helianthus annuus) and velvetleaf (Abutilon theophrasti) were planted into a blend of loam soil and sand and treated preemergence with test compounds formulated in a non-phytotoxic solvent mixture which included a surfactant.
(§2) At the same time, plants selected from these crop and weed species and also winter barley (Hordeum vulgare), canarygrass (Phalaris minor), chickweed (Stellaria media) and windgrass (Apera spica-venti) were planted in pots containing Redi-Earth® planting medium (Scotts Company, 14111 Scottslawn Road, Marysville, Ohio 43041) comprising spaghnum peat moss, vermiculite, wetting agent and starter nutrients and treated with postemergence applications of some of the test chemicals formulated in the same manner. Plants ranged in height from 2 to 18 cm (1- to 4-leaf stage) for postemergence treatments.
(§3) Treated plants and controls were maintained in a greenhouse for 13 to 15 days, after which time all treated plants were visually evaluated and compared to controls. Plant response ratings, summarized in Table B, are based on a scale of 0 to 100 where 0 is no effect and 100 is complete control. A dash (-) response means no test result.

[1] = system: Italian ryegrass (Lolium multiflorum); experiment: Test B pre-/postemergence plant response
Source text: as §1, §2, §3

corn (Zea mays) = experiment: Test B pre-/postemergence plant response
Source text: as §1, §2, §3

[2] = system: blackgrass (Alopecurus myosuroides); experiment: Test B pre-/postemergence plant response
Source text: as §1, §2, §3

[3] = system: giant foxtail (Setaria faberii); experiment: Test B pre-/postemergence plant response
Source text: as §1, §2, §3

[4] = system: pigweed (Amaranthus retroflexus); experiment: Test B pre-/postemergence plant response
Source text: as §1, §2, §3

[5] = system: cocklebur (Xanthium strumarium); experiment: Test B pre-/postemergence plant response
Source text: as §1, §2, §3

[6] = system: morningglory (Ipomoea coccinea); experiment: Test B pre-/postemergence plant response
Source text: as §1, §2, §3

[7] = system: Surinam grass (Brachiaria decumbens); experiment: Test B pre-/postemergence plant response
Source text: as §1, §2, §3

[8] = system: downy bromegrass (Bromus tectorum); experiment: Test B pre-/postemergence plant response
Source text: as §1, §2, §3

[9] = system: chickweed (Stellaria media); experiment: Test B postemergence plant response
Procedure, shortened: (§4)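 Plants at the 1- to 4-leaf stage (2 to 18 cm tall), grown in pots of peat moss/vermiculite medium with wetting agent and starter nutrients, received postemergence applications of test chemicals. After 13 to 15 days in a greenhouse, injury was rated visually against untreated controls on a 0 (no effect) to 100 (complete control) scale.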

[10] = system: canarygrass (Phalaris minor); experiment: Test B postemergence plant response
Procedure, shortened: as §4

[11] = system: windgrass (Apera spica-venti); experiment: Test B postemergence plant response
Procedure, shortened: as §4

[12] = 31 g ai/ha, postemergence, scale 0 to 100, 0 is no effect, 100 is complete control
[13] = Postemergence, 62 g ai/ha, scale 0 (no effect) to 100 (complete control), 13 to 15 days
[14] = Postemergence, 125 g ai/ha, visual rating after 13 to 15 days, scale 0 (no effect) to 100 (complete control)
[15] = Postemergence, 250 g ai/ha, scale 0 to 100 (0 no effect, 100 complete control)
[16] = Preemergence, 31 g ai/ha, scale 0 to 100 (0 no effect, 100 complete control)
[17] = Preemergence, 62 g ai/ha, scale 0 to 100 (0 no effect, 100 complete control)
[18] = Preemergence, 125 g ai/ha, scale 0 to 100, 0 no effect, 100 complete control
[19] = 250 g ai/ha, Preemergence, 0 to 100 scale

O=C1CCCC(O)=C1C(=O)c1cnc(-c2cccc(Cl)c2)n(-c2ccc(Cl)cc2)c1=O [Compound 64]
45: Plant response rating, Bromegrass, Downy [8, 13]
70: Plant response rating, Cocklebur [5, 19] | Plant response rating, Windgrass [11, 12]
35: Plant response rating, Foxtail, Giant [3, 18]
55: Plant response rating, Pigweed [4, 16]
65: Plant response rating, Foxtail, Giant [3, 19]
10: Plant response rating, Cocklebur [5, 18]
75: Plant response rating, Pigweed [4, 17]
40: Plant response rating, Canarygrass [10, 12] | Plant response rating, Canarygrass [10, 13] | Plant response rating, Canarygrass [10, 14]
25: Plant response rating, Foxtail, Giant [3, 17] | Plant response rating, Bromegrass, Downy [8, 12]
100: Plant response rating, Foxtail, Giant [3, 15] | Plant response rating, Pigweed [4, 13] | Plant response rating, Pigweed [4, 14] | Plant response rating, Pigweed [4, 15] | Plant response rating, Chickweed [9, 15] | Plant response rating, Windgrass [11, 15]
30: Plant response rating, Ryegrass, Italian [1, 15]
80: Plant response rating, Corn (corn (Zea mays); [12]) | Plant response rating, Morningglory [6, 12] | Plant response rating, Morningglory [6, 13]
90: Plant response rating, Oat, Wild (wild oat (Avena fatua); [13]) | Plant response rating, Corn (corn (Zea mays); [15]) | Plant response rating, Foxtail, Giant [3, 12] | Plant response rating, Cocklebur [5, 12] | Plant response rating, Morningglory [6, 15] | Plant response rating, Windgrass [11, 13]
0: Plant response rating, Oat, Wild (wild oat (Avena fatua); [16]) | Plant response rating, Oat, Wild (wild oat (Avena fatua); [17]) | Plant response rating, Oat, Wild (wild oat (Avena fatua); [18]) | Plant response rating, Ryegrass, Italian [1, 12] | Plant response rating, Ryegrass, Italian [1, 13] | Plant response rating, Ryegrass, Italian [1, 14] | Plant response rating, Ryegrass, Italian [1, 16] | Plant response rating, Ryegrass, Italian [1, 17] | Plant response rating, Ryegrass, Italian [1, 18] | Plant response rating, Corn (corn (Zea mays); [19]) | Plant response rating, Corn (corn (Zea mays); [16]) | Plant response rating, Corn (corn (Zea mays); [17]) | Plant response rating, Corn (corn (Zea mays); [18]) | Plant response rating, Blackgrass [2, 12] | Plant response rating, Blackgrass [2, 19] | Plant response rating, Blackgrass [2, 13] | Plant response rating, Blackgrass [2, 16] | Plant response rating, Blackgrass [2, 17] | Plant response rating, Blackgrass [2, 18] | Plant response rating, Cocklebur [5, 16] | Plant response rating, Cocklebur [5, 17] | Plant response rating, Morningglory [6, 16] | Plant response rating, Morningglory [6, 17] | Plant response rating, Morningglory [6, 18] | Plant response rating, Surinam Grass [7, 16] | Plant response rating, Bromegrass, Downy [8, 19] | Plant response rating, Bromegrass, Downy [8, 16] | Plant response rating, Bromegrass, Downy [8, 17] | Plant response rating, Bromegrass, Downy [8, 18]
20: Plant response rating, Foxtail, Giant [3, 16]
98: Plant response rating, Oat, Wild (wild oat (Avena fatua); [15]) | Plant response rating, Foxtail, Giant [3, 14] | Plant response rating, Pigweed [4, 12] | Plant response rating, Surinam Grass [7, 14] | Plant response rating, Surinam Grass [7, 15] | Plant response rating, Chickweed [9, 12] | Plant response rating, Chickweed [9, 13] | Plant response rating, Chickweed [9, 14]
60: Plant response rating, Oat, Wild (wild oat (Avena fatua); [12]) | Plant response rating, Bromegrass, Downy [8, 14] | Plant response rating, Canarygrass [10, 15]
15: Plant response rating, Blackgrass [2, 15]
95: Plant response rating, Oat, Wild (wild oat (Avena fatua); [14]) | Plant response rating, Foxtail, Giant [3, 13] | Plant response rating, Cocklebur [5, 13] | Plant response rating, Cocklebur [5, 14] | Plant response rating, Cocklebur [5, 15] | Plant response rating, Surinam Grass [7, 13] | Plant response rating, Windgrass [11, 14]
85: Plant response rating, Corn (corn (Zea mays); [13]) | Plant response rating, Corn (corn (Zea mays); [14]) | Plant response rating, Pigweed [4, 18] | Plant response rating, Morningglory [6, 14] | Plant response rating, Surinam Grass [7, 12] | Plant response rating, Surinam Grass [7, 17] | Plant response rating, Surinam Grass [7, 18] | Plant response rating, Bromegrass, Downy [8, 15]
5: Plant response rating, Blackgrass [2, 14]

CCCCc1ncc(C(=O)C2=C(O)CCCC2=O)c(=O)n1-c1cccc(C)c1 [Compound 63]
40: Plant response rating, Blackgrass [2, 19] | Plant response rating, Bromegrass, Downy [8, 15] | Plant response rating, Windgrass [11, 14]
65: Plant response rating, Foxtail, Giant [3, 13] | Plant response rating, Foxtail, Giant [3, 14] | Plant response rating, Cocklebur [5, 12] | Plant response rating, Chickweed [9, 13]
95: Plant response rating, Pigweed [4, 13] | Plant response rating, Pigweed [4, 14] | Plant response rating, Pigweed [4, 16] | Plant response rating, Cocklebur [5, 15] | Plant response rating, Chickweed [9, 15]
100: Plant response rating, Pigweed [4, 15] | Plant response rating, Pigweed [4, 18]
70: Plant response rating, Morningglory [6, 13]
45: Plant response rating, Corn (corn (Zea mays); [15])
90: Plant response rating, Cocklebur [5, 14]
35: Plant response rating, Blackgrass [2, 13] | Plant response rating, Blackgrass [2, 14] | Plant response rating, Surinam Grass [7, 14]
80: Plant response rating, Foxtail, Giant [3, 15] | Plant response rating, Cocklebur [5, 13] | Plant response rating, Chickweed [9, 14]
0: Plant response rating, Oat, Wild (wild oat (Avena fatua); [12]) | Plant response rating, Oat, Wild (wild oat (Avena fatua); [13]) | Plant response rating, Oat, Wild (wild oat (Avena fatua); [16]) | Plant response rating, Oat, Wild (wild oat (Avena fatua); [17]) | Plant response rating, Oat, Wild (wild oat (Avena fatua); [18]) | Plant response rating, Ryegrass, Italian [1, 12] | Plant response rating, Ryegrass, Italian [1, 13] | Plant response rating, Ryegrass, Italian [1, 14] | Plant response rating, Ryegrass, Italian [1, 16] | Plant response rating, Ryegrass, Italian [1, 17] | Plant response rating, Ryegrass, Italian [1, 18] | Plant response rating, Corn (corn (Zea mays); [19]) | Plant response rating, Corn (corn (Zea mays); [16]) | Plant response rating, Corn (corn (Zea mays); [17]) | Plant response rating, Corn (corn (Zea mays); [18]) | Plant response rating, Blackgrass [2, 16] | Plant response rating, Blackgrass [2, 17] | Plant response rating, Foxtail, Giant [3, 16] | Plant response rating, Foxtail, Giant [3, 17] | Plant response rating, Foxtail, Giant [3, 18] | Plant response rating, Cocklebur [5, 16] | Plant response rating, Cocklebur [5, 17] | Plant response rating, Cocklebur [5, 18] | Plant response rating, Morningglory [6, 16] | Plant response rating, Morningglory [6, 17] | Plant response rating, Morningglory [6, 18] | Plant response rating, Surinam Grass [7, 16] | Plant response rating, Surinam Grass [7, 17] | Plant response rating, Bromegrass, Downy [8, 19] | Plant response rating, Bromegrass, Downy [8, 16] | Plant response rating, Bromegrass, Downy [8, 17] | Plant response rating, Bromegrass, Downy [8, 18] | Plant response rating, Canarygrass [10, 12] | Plant response rating, Canarygrass [10, 13] | Plant response rating, Canarygrass [10, 14] | Plant response rating, Canarygrass [10, 15]
60: Plant response rating, Foxtail, Giant [3, 12] | Plant response rating, Chickweed [9, 12] | Plant response rating, Windgrass [11, 15]
25: Plant response rating, Corn (corn (Zea mays); [14]) | Plant response rating, Surinam Grass [7, 13]
10: Plant response rating, Ryegrass, Italian [1, 15] | Plant response rating, Foxtail, Giant [3, 19] | Plant response rating, Cocklebur [5, 19] | Plant response rating, Surinam Grass [7, 12] | Plant response rating, Bromegrass, Downy [8, 12] | Plant response rating, Windgrass [11, 12]
20: Plant response rating, Oat, Wild (wild oat (Avena fatua); [15]) | Plant response rating, Corn (corn (Zea mays); [13]) | Plant response rating, Bromegrass, Downy [8, 13] | Plant response rating, Bromegrass, Downy [8, 14]
30: Plant response rating, Blackgrass [2, 12] | Plant response rating, Windgrass [11, 13]
75: Plant response rating, Morningglory [6, 14] | Plant response rating, Morningglory [6, 15] | Plant response rating, Surinam Grass [7, 15]
5: Plant response rating, Oat, Wild (wild oat (Avena fatua); [14]) | Plant response rating, Blackgrass [2, 18]
50: Plant response rating, Blackgrass [2, 15]
85: Plant response rating, Pigweed [4, 12]
55: Plant response rating, Surinam Grass [7, 18]
98: Plant response rating, Pigweed [4, 17]
